pEC50, pIC50: −log10 of the molar value. Where a name gives a salt, the structure may show the parent alone.
Key:
human thrombocytes = assay: Inhibition of binding of ^3 H-BIBU 52 to human thrombocytes (Fibrinogen-binding test); conditions: ^3 H-BIBU 52 5 nM, human platelet-rich plasma 1:10 diluted, ambient temperature, 20 minutes
Protocol: 1. Inhibition of binding of ^3 H-BIBU 52 to human thrombocytes: […] Case 5/1093-FL) and various concentrations of the substance to be tested. The free and bound ligand is separated by centrifuging and quantitatively determined by scintillation counting. The inhibition of ^3 H-BIBU 52 binding by the test substance is determined from the measurements obtained. In order to do this, donor blood is taken from an anticubital vein and anticoagulated with trisodium citrate (final concentration 13 mM). The blood is centrifuged for 10 minutes at 170 x g and the supernatant platelet-rich plasma (PRP) is removed. The remaining blood is sharply centrifuged once more in order to obtain plasma. The PRP is diluted 1:10 with autologous plasma. 750 μl are incubated with 50 μl of physiological saline solution, 100 μl of test substance solution, 50 μl of ^14 C-sucrose (3,700 Bq) and 50 μl of ^3 H-BIBU 52 (final concentration: 5 nM) at ambient temperature for 20 minutes. In order to measure the non-specific binding, 5 μl of BIBU 52 (final concentration: 30 μM) are used instead of the test substance. The samples are centrifuged for 20 seconds at 10,000 x g and the supernatant is poured off. 100 μl thereof are measured in order to determine the free ligand. The pellet is dissolved in 500 μl of 0.2N NaOH, 450 μl are mixed with 2 ml of scintillator and 25 μl of 5N HCl and measured. The residual plasma remaining in the pellet is determined from the ^14 C-content and the bound ligand is determined from the ^3 H-measurement. After the non-specific binding has been deducted, the pellet activity is plotted against the concentration of the test substance and the concentration for a 50% inhibition of binding is determined.

platelet aggregation = assay: Antithrombotic activity: inhibition of collagen-induced platelet aggregation (Born and Cross method); format: cell-based; conditions: Homo sapiens, 10 min, platelet-rich plasma from healthy volunteers, 10 minutes incubation at 37° C.
Protocol: 2. Antithrombotic activity Method The thrombocyte aggregation is measured using the Born and Cross method (J. Physiol. 170:397 (1964)) in platelet-rich plasma taken from healthy volunteers. To inhibit coagulation the blood is mixed with 3.14% sodium citrate in a volume ratio of 1:10. Collagen-induced aggregation The pattern of the decrease in optical density of the platelet suspension is photometrically measured and recorded after the addition of the aggregation-triggering substance. The rate of aggregation is determined from the angle of inclination of the density curve. The point on the curve where there is maximum light transmittance is used to calculate the optical density. The amount of collagen used is as small as possible but sufficient to produce an irreversible reaction curve. Standard commercial collagen produced by Hormonchemie of Munich is used. Before the addition of the collagen the plasma is incubated for 10 minutes with the substance at 37° C. From the measurements obtained an EC50 is determined graphically, indicating a 50% change in the optical density in terms of the inhibition of aggregation. The Table which follows contains the results found: […]

mice = assay: Tolerability after intravenous administration to mice; format: in vivo; conditions: intravenous administration of 15 mg/kg, 3 animals

| SMILES | pIC50 (human thrombocytes) | pEC50 (platelet aggregation) | deaths (mice) |
| --- | --- | --- | --- |
| N=C(N)c1ccc(N2CCC(c3ccc(CCC(=O)O)cc3)C2=O)cc1 (stereo not shown) [2(13), 1-(4-amidinophenyl)-3-[4-(2-carboxy-ethyl)-phenyl]-pyrrolidin-2-one-hydrochloride] | 6.96 | 6.59 | – |
| COC1=C(c2ccc(CCC(=O)O)cc2)C(=O)N(c2ccc(C(=N)N)cc2)C1 [Example 2, -(4-Amidinophenyl)-3-[4-(2-carboxyethyl)-phenyl]-4-methoxy-3-pyrrolin-2one-hydrochloride] | 7.96 | 7.40 | none of the 3 animals tested died |
| CC1(c2ccc(CCC(=O)O)cc2)C(=O)CN(c2ccc(C(=N)N)cc2)C1=O (stereo not shown) [Example 13, 1-(4-Amidinophenyl)-3-[4-(2-carboxy-ethyl)-phenyl]-3-methyl-pyrrolidin-2,4-dione-hydrochloride] | 6.44 | 6.30 | – |
| COC1=C(c2ccc(CCC(=O)O)cc2)C(=O)N(c2ccc(CN)cc2)C1 [2(55), 1-(4-aminomethyl-phenyl)-3-[4-(2-carboxy-ethyl)phenyl]-4-methoxy-3-pyrrolin-2-one-hydrochloride] | 6.74 | 6.48 | – |
| N=C(N)c1ccc(N2CC(N3CCOCC3)=C(c3ccc(CCC(=O)O)cc3)C2=O)cc1 [2(3), 1-(4-amidinophenyl)-3-[4-(2-carboxy-ethyl)-phenyl]-4-morpholino-3-pyrrolin-2-one-hydrochloride] | 7.38 | 6.14 | – |
| COC(=O)CCc1ccc(C2=C(OC)CN(c3ccc(CN)cc3)C2=O)cc1 [5(B), 1-(4-Aminomethyl-phenyl)-4-methoxy-3-[4-(2-methoxycarbonyl-ethyl)-phenyl]-3-pyrrolin-2-one] | 5.07 | 6.42 | – |

Source: patent publication US5489693A, “Cyclic imino derivatives, pharmaceutical compositions containing these compounds and processes preparing them” (priority 1992, dated 1996)
